Source: the supplement of paper PMC13380429

Columns and labels:
Conditions in all cases: 72 h
Caco-2 [1] = assay: cell viability relative to DMSO; higher = less toxic
Calu-3 [2] = assay: as above
HepG2 [3] = assay: as above
U2OS [4] = assay: as above
Vero E6 [5] = assay: as above
Caco-2 [6] = assay: relative viability EC50 (midpoint between 100% and the lowest measured viability); higher = less toxic
Calu-3 [7] = assay: as above
HepG2 [8] = assay: as above
U2OS [9] = assay: as above
Vero E6 [10] = assay: as above
Caco-2 [11] = assay: drug sensitivity score (DSS) for viability; higher = more toxic; extreme values may be limits of the assay
Calu-3 [12] = assay: as above
HepG2 [13] = assay: as above
U2OS [14] = assay: as above
Vero E6 [15] = assay: as above

Row | Structure (SMILES) | cell viability (Caco-2 [1]; 1 nM) | cell viability (Caco-2 [1]; 10 nM) | cell viability (Caco-2 [1]; 100 nM) | cell viability (Caco-2 [1]; 1000 nM) | cell viability (Caco-2 [1]; 10000 nM) | cell viability (Calu-3 [2]; 1 nM) | cell viability (Calu-3 [2]; 10 nM) | cell viability (Calu-3 [2]; 100 nM) | cell viability (Calu-3 [2]; 1000 nM) | cell viability (Calu-3 [2]; 10000 nM) | cell viability (HepG2 [3]; 1 nM) | cell viability (HepG2 [3]; 10 nM) | cell viability (HepG2 [3]; 100 nM) | cell viability (HepG2 [3]; 1000 nM) | cell viability (HepG2 [3]; 10000 nM) | cell viability (U2OS [4]; 1 nM) | cell viability (U2OS [4]; 10 nM) | cell viability (U2OS [4]; 100 nM) | cell viability (U2OS [4]; 1000 nM) | cell viability (U2OS [4]; 10000 nM) | cell viability (Vero E6 [5]; 1 nM) | cell viability (Vero E6 [5]; 10 nM) | cell viability (Vero E6 [5]; 100 nM) | cell viability (Vero E6 [5]; 1000 nM) | cell viability (Vero E6 [5]; 10000 nM) | relative viability EC50 (Caco-2 [6]) | relative viability EC50 (Calu-3 [7]) | relative viability EC50 (HepG2 [8]) | relative viability EC50 (U2OS [9]) | relative viability EC50 (Vero E6 [10]) | drug sensitivity score (Caco-2 [11]) | drug sensitivity score (Calu-3 [12]) | drug sensitivity score (HepG2 [13]) | drug sensitivity score (U2OS [14]) | drug sensitivity score (Vero E6 [15])
1 | CCCCOc1ccc(C(=O)Nc2ccc(F)cc2F)cc1 | 105% | 106% | 104% | 92.6% | 96.5% | 107% | 97.1% | 109% | 99.2% | 95.5% | 100% | 98.2% | 101% | 90.7% | 97.6% | 98.1% | 98.2% | 101% | 96.6% | 99.5% | 99.2% | 102% | 98.4% | 99.7% | 101% | > 10 µM | > 10 µM | > 10 µM | > 10 µM | > 10 µM | 0 | 0 | 0 | 0 | 0
2 | c1ccc(OCc2ccc(CCCN3CCOCC3)cc2)cc1 [fomocaine] | 87.8% | 92.8% | 100% | 93.4% | 97.1% | 110% | 101% | 108% | 96.3% | 113% | 96.7% | 106% | 97.1% | 101% | 90.4% | 93.7% | 94.6% | 98.5% | 100% | 101% | 94.9% | 95.7% | 93.1% | 100% | 100% | > 10 µM | > 10 µM | > 10 µM | > 10 µM | > 10 µM | 0 | 0 | 0 | 0 | 0
3 | C=CCOc1ccccc1OCC(O)CNC(C)C (stereo not given) [oxprenolol] | 102% | 91.5% | 98% | 91.2% | 97.9% | 111% | 90.8% | 108% | 93.2% | 103% | 97.4% | 97.8% | 93.3% | 113% | 107% | 106% | 97.7% | 99.8% | 101% | 102% | 98.6% | 104% | 102% | 106% | 98.6% | > 10 µM | > 10 µM | > 10 µM | > 10 µM | > 10 µM | 0 | 0 | 0 | 0 | 0
4 | Cc1ccc(NC(=O)c2cccc(N(C)C)c2)cc1NC(=O)c1ccc(O)cc1 | 101% | 102% | 89% | 93.6% | 81.8% | 104% | 104% | 91.7% | 94.7% | 99% | 98.8% | 97.7% | 105% | 94.3% | 84.1% | 104% | 100% | 99.5% | 97% | 104% | 101% | 99.8% | 98.4% | 101% | 102% | > 10 µM | > 10 µM | > 10 µM | > 10 µM | > 10 µM | 0.8 | 0 | 0.8 | 0 | 0
5 | C=C[C@@H]1C[C@]1(NC(=O)[C@@H]1C[C@@H]2CN1C(=O)[C@H](C(C)(C)C)NC(=O)O[C@@H]1C[C@H]1CCCCCc1nc3ccc(OC)cc3nc1O2)C(=O)NS(=O)(=O)C1CC1 [grazoprevir] | 101% | 98.5% | 105% | 93.9% | 80.8% | 103% | 107% | 105% | 94.7% | 103% | 106% | 92.5% | 99.6% | 103% | 106% | 93% | 100% | 96% | 91.6% | 90.4% | 96.3% | 98.3% | 97.1% | 95.3% | 103% | > 10 µM | > 10 µM | > 10 µM | > 10 µM | > 10 µM | 1.2 | 0 | 0 | 0 | 0
6 | N[C@@H](Cc1cc(-c2ccc(Cl)cc2Cl)cc(CP(=O)(O)O)c1O)C(=O)O [SDZ-220-040] | 103% | 99.5% | 94.3% | 94.3% | 102% | 105% | 104% | 98.2% | 108% | 110% | 97.4% | 108% | 99.2% | 104% | 89.1% | 105% | 98.6% | 103% | 98.2% | 100% | 98.7% | 102% | 106% | 104% | 100% | > 10 µM | > 10 µM | > 10 µM | > 10 µM | > 10 µM | 0 | 0 | 0 | 0 | 0
7 | CCCOC(=O)c1ccc(O)cc1 [propyl 4-hydroxybenzoate] | 92.2% | 100% | 102% | 90.2% | 109% | 92.1% | 95.4% | 88.7% | 92.1% | 102% | 108% | 102% | 107% | 89% | 102% | 102% | 97.1% | 100% | 98.9% | 102% | 108% | 95.9% | 102% | 95.3% | 100% | > 10 µM | > 10 µM | > 10 µM | > 10 µM | > 10 µM | 0 | 0 | 0 | 0 | 0
